Values of other authors in patent publication US20230248791A1, “METHODS FOR MANUFACTURING ANGELICA GIGAS NAKAI EXTRACT USING FERMENTATION BACTERIA” (Sooy-K Co., Ltd., priority 2022, published 2023).

Key:
[1] = system: ex vivo 3D human skin model
cyclooxygenase-2 (COX-2) = biological target: T1, cyclooxygenase-2 (COX-2) (Homo sapiens, UniProt P35354)
T1 sequence (P35354 18-604): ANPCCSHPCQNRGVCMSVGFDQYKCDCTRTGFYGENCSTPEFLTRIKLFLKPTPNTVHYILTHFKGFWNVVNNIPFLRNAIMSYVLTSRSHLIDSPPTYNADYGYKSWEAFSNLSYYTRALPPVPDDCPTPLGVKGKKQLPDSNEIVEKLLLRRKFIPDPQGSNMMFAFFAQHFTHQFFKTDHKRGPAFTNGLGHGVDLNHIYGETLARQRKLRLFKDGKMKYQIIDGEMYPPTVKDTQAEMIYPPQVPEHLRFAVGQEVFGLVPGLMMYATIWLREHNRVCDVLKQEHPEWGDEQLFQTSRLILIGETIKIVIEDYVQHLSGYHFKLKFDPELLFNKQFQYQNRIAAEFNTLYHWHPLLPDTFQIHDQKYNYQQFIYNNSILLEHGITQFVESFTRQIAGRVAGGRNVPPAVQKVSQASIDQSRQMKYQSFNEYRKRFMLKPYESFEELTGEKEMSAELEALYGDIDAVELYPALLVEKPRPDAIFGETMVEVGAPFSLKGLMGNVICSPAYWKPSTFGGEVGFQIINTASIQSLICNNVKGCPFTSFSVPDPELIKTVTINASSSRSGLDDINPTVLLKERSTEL

[2] = system: microphthalmia-associated transcription factors (MITFs); conditions: via PKA/CREB, p38/ERK MARK, PI3K/Akt/GSK-3β

effect on COX-2 (anti-inflammatory mechanism) (cyclooxygenase-2 (COX-2)): inhibiting cyclooxygenase-2 (COX-2)
SMILES: CC(C)=CC(=O)OC1Cc2cc3ccc(=O)oc3cc2OC1(C)C (stereo not shown) [decursin, 3-methyl-2-butenoic acid 2,2-dimethyl-8-oxo-3,4-dihydro-2H,8H-pyrano[3,2-g]chromen-3-yl ester]
melanin synthesis [1]: prevents melanin synthesis
UVA/UVB-induced skin damage and skin aging (human dermal fibroblast): inhibits UVA/UVB-induced skin damage and skin aging
effect on MITFs, major transcription factor in melanin synthesis [2]: inhibit
